According to ChEMBL document CHEMBL1201862, “PubChem BioAssay data set” (2004):
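Growth conditions: 96-well plates. Treatment: test compound, 48 hours, 5 concentrations. Analysis: linear interpolation between bracketing concentrations; unreached endpoints set to highest concentration. Abbreviation: GI50, concentration required for 50% inhibition of growth.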 The source made the active and inactive calls. No stated cut-off is given here; in the data, active = GI50 up to about 1.1 µM and inactive = higher.

What was measured:
Assay in all cases: DTP human tumour cell line panel, 48 h
786-0 = test system: 786-0
A549 = test system: A549
CAKI-1 = test system: CAKI-1
DU-145 = test system: DU-145
IGROV-1 = test system: IGROV-1
KM12 = test system: KM12
M14 = test system: M14
MCF7 = test system: MCF7
MDA-N = test system: MDA-N
NCI/ADR-RES = test system: NCI/ADR-RES
SF-295 = test system: SF-295
SF-539 = test system: SF-539
SK-MEL-28 = test system: SK-MEL-28
SK-MEL-5 = test system: SK-MEL-5
SK-OV-3 = test system: SK-OV-3
SN12C = test system: SN12C
SR = test system: SR
UACC-62 = test system: UACC-62
OVCAR-4 = test system: OVCAR-4

Measured: GI50

c1ccc([P+](c2ccccc2)(c2ccccc2)c2ccc([P+](c3ccccc3)(c3ccccc3)c3ccccc3)c3ccccc23)cc1
inactive: 786-0 > 100 µM | A549 70.1 µM | CAKI-1 > 100 µM | DU-145 67.3 µM | IGROV-1 94.8 µM | KM12 34.4 µM | M14 > 100 µM | MCF7 47 µM | MDA-N 64.4 µM | NCI/ADR-RES > 100 µM | SF-295 > 100 µM | SF-539 63.7 µM | SK-MEL-28 > 100 µM | SK-MEL-5 62.1 µM | SK-OV-3 > 100 µM | SN12C > 100 µM | UACC-62 86.5 µM
active: SR < 0.01 µM

COc1cc2cccc(N)c2cc1OC
inactive: 786-0 > 100 µM | A549 > 100 µM | CAKI-1 > 100 µM | DU-145 > 100 µM | IGROV-1 > 100 µM | KM12 > 100 µM | M14 > 100 µM | MCF7 > 100 µM | MDA-N > 100 µM | NCI/ADR-RES > 100 µM | OVCAR-4 > 100 µM | SF-295 > 100 µM | SF-539 > 100 µM | SK-MEL-28 > 100 µM | SK-MEL-5 > 100 µM | SK-OV-3 > 100 µM | SN12C > 100 µM | SR > 45.3 µM | UACC-62 > 100 µM

N#Cc1c(C#N)c(SSc2c(C#N)c(C#N)c(N)n2-c2cccc3ccccc23)n(-c2cccc3ccccc23)c1N
inactive: 786-0 1.98 µM | A549 19.9 µM | CAKI-1 8.05 µM | DU-145 21.9 µM | IGROV-1 7.45 µM | KM12 41.6 µM | M14 3.08 µM | MCF7 3.47 µM | MDA-N 6.11 µM | NCI/ADR-RES 25.1 µM | OVCAR-4 6.01 µM | SF-295 19.9 µM | SF-539 15.7 µM | SK-MEL-28 6.03 µM | SK-MEL-5 20.2 µM | SK-OV-3 24.1 µM | SN12C 12 µM | SR 2.34 µM | UACC-62 18 µM

CCCCCCCCCCCCCCCCNC(=O)/C(=C\c1ccc(Cl)c(Cl)c1)NC(=O)c1ccccc1
inactive: 786-0 19.4 µM | A549 43.6 µM | CAKI-1 66.7 µM | DU-145 27.4 µM | IGROV-1 16.8 µM | KM12 52.6 µM | M14 > 100 µM | MCF7 25.9 µM | MDA-N 68.7 µM | NCI/ADR-RES 48.3 µM | OVCAR-4 24.8 µM | SF-295 55.2 µM | SF-539 16.5 µM | SK-MEL-28 70.1 µM | SK-MEL-5 > 100 µM | SK-OV-3 53 µM | SN12C 25.8 µM | SR 18.2 µM

CSC1NNC2(C(=O)N1)c1ccccc1-c1ccccc12 (stereo not given)
inactive: 786-0 > 10 µM | A549 > 10 µM | CAKI-1 > 10 µM | DU-145 > 10 µM | IGROV-1 > 10 µM | KM12 > 10 µM | M14 > 10 µM | MCF7 > 10 µM | MDA-N > 10 µM | NCI/ADR-RES > 10 µM | OVCAR-4 > 10 µM | SF-295 > 10 µM | SF-539 > 10 µM | SK-MEL-28 > 10 µM | SK-MEL-5 > 10 µM | SK-OV-3 > 10 µM | SN12C > 10 µM | SR > 10 µM | UACC-62 > 10 µM

CSc1ccc(-c2cc(-c3nc4ccccc4[nH]3)nc(N)c2C#N)cc1
inactive: 786-0 26.1 µM | A549 23.1 µM | CAKI-1 18.3 µM | DU-145 17.4 µM | IGROV-1 8.67 µM | KM12 21 µM | M14 16.8 µM | MCF7 15.6 µM | MDA-N 20.7 µM | NCI/ADR-RES 31.3 µM | SF-295 21.9 µM | SF-539 23.6 µM | SK-MEL-28 20.2 µM | SK-MEL-5 13.3 µM | SK-OV-3 33 µM | SN12C 25.8 µM | SR 13.1 µM | UACC-62 12.3 µM

CC(C)c1ccc(/C=C2\CSCC3=C2N=C2SCC(=O)N2C3c2ccc(C(C)C)cc2)cc1 (stereo not given)
inactive: 786-0 > 100 µM | A549 > 100 µM | CAKI-1 > 100 µM | DU-145 > 100 µM | IGROV-1 > 100 µM | KM12 > 100 µM | M14 > 100 µM | MCF7 > 100 µM | MDA-N > 100 µM | NCI/ADR-RES > 100 µM | OVCAR-4 > 100 µM | SF-295 > 100 µM | SF-539 > 100 µM | SK-MEL-28 > 100 µM | SK-MEL-5 > 100 µM | SK-OV-3 > 100 µM | SN12C 92.7 µM | SR 77.4 µM | UACC-62 > 100 µM

C[C@]12CC[C@H]3[C@@H](CC=C4C[C@@H](O)CC[C@@]43C)[C@@H]1C/C(=C\c1ccncc1)[C@@H]2O
inactive: 786-0 21.1 µM | A549 19.7 µM | CAKI-1 18.1 µM | DU-145 23.1 µM | IGROV-1 21.8 µM | KM12 15.9 µM | M14 16.5 µM | MCF7 23 µM | MDA-N 21.8 µM | NCI/ADR-RES 17.3 µM | OVCAR-4 12.2 µM | SF-295 16.6 µM | SF-539 16.9 µM | SK-MEL-28 18.1 µM | SK-MEL-5 8.51 µM | SK-OV-3 28.3 µM | SN12C 17.2 µM | SR 8.87 µM | UACC-62 15.4 µM

COC(=O)c1ccc(NC(=O)c2cc3c(cc2Br)OCO3)o1
inactive: 786-0 > 100 µM | A549 > 100 µM | CAKI-1 > 100 µM | DU-145 > 100 µM | IGROV-1 > 100 µM | KM12 > 100 µM | M14 > 100 µM | MCF7 > 100 µM | MDA-N 42.5 µM | NCI/ADR-RES 59 µM | OVCAR-4 > 100 µM | SF-295 > 100 µM | SF-539 > 100 µM | SK-MEL-28 > 100 µM | SK-MEL-5 > 100 µM | SK-OV-3 > 100 µM | SN12C > 100 µM | SR 41.4 µM | UACC-62 > 100 µM

CN(C(=O)CCC(=O)O)c1ccccc1C(=O)O
inactive: 786-0 > 100 µM | A549 > 100 µM | CAKI-1 > 100 µM | DU-145 > 100 µM | IGROV-1 > 100 µM | KM12 > 100 µM | M14 > 100 µM | MCF7 > 100 µM | MDA-N > 100 µM | NCI/ADR-RES > 100 µM | OVCAR-4 > 100 µM | SF-295 > 100 µM | SF-539 > 100 µM | SK-MEL-28 > 100 µM | SK-MEL-5 > 100 µM | SK-OV-3 > 100 µM | SR > 100 µM | UACC-62 > 100 µM

Cc1c(C)c2c(c(N)c1C#N)C(=O)N(NC(=O)c1ccccc1)C2=O
inactive: 786-0 > 100 µM | A549 > 100 µM | CAKI-1 > 100 µM | DU-145 > 100 µM | IGROV-1 > 100 µM | KM12 > 100 µM | M14 > 100 µM | MCF7 > 100 µM | MDA-N > 100 µM | NCI/ADR-RES > 100 µM | OVCAR-4 > 100 µM | SF-295 > 100 µM | SF-539 > 100 µM | SK-MEL-28 > 100 µM | SK-MEL-5 > 100 µM | SN12C > 100 µM | SR > 100 µM | UACC-62 > 100 µM

O=C1NC(=O)[C@H]2C3C=CC([C@@H]12)[C@@H]1C(=O)NC(=O)[C@H]31
inactive: 786-0 > 100 µM | A549 > 100 µM | CAKI-1 > 100 µM | DU-145 > 100 µM | IGROV-1 > 100 µM | M14 > 100 µM | MCF7 97.1 µM | MDA-N > 100 µM | NCI/ADR-RES > 100 µM | SF-295 > 100 µM | SF-539 > 100 µM | SK-MEL-28 > 100 µM | SK-MEL-5 > 100 µM | SN12C > 100 µM | SR > 100 µM | UACC-62 > 100 µM

CCOC(=O)N1C(=S)C(C(=O)OC)(C(=O)OC)N=C1C
inactive: 786-0 > 100 µM | A549 > 100 µM | CAKI-1 > 100 µM | DU-145 > 100 µM | IGROV-1 > 100 µM | KM12 > 100 µM | M14 > 100 µM | MCF7 > 100 µM | MDA-N > 100 µM | NCI/ADR-RES > 100 µM | OVCAR-4 > 100 µM | SF-295 > 100 µM | SK-MEL-28 > 100 µM | SK-MEL-5 > 100 µM | SK-OV-3 > 100 µM | SN12C > 100 µM | SR > 100 µM | UACC-62 > 100 µM

Cc1ccc(S(=O)(=O)n2cc(C=O)c(-c3cn(S(=O)(=O)c4ccc(C)cc4)cc3-c3cn(S(=O)(=O)c4ccc(C)cc4)cc3C=O)c2)cc1
inactive: 786-0 35.8 µM | A549 72.4 µM | CAKI-1 > 100 µM | DU-145 69.3 µM | IGROV-1 53.8 µM | KM12 50.7 µM | M14 29.6 µM | MCF7 27.4 µM | MDA-N 75.2 µM | NCI/ADR-RES > 100 µM | SF-295 42.9 µM | SF-539 25.9 µM | SK-MEL-5 41.6 µM | SK-OV-3 > 100 µM | SN12C > 100 µM | SR 13.6 µM | UACC-62 48.1 µM

O=[N+]([O-])c1ccc2c(c1)c1nn2CCCCOc2nn(c3ccc([N+](=O)[O-])cc23)CCCCO1
inactive: 786-0 > 100 µM | CAKI-1 > 100 µM | DU-145 > 100 µM | IGROV-1 > 100 µM | M14 > 100 µM | MCF7 > 100 µM | MDA-N > 100 µM | NCI/ADR-RES > 100 µM | OVCAR-4 > 100 µM | SF-295 > 100 µM | SF-539 > 100 µM | SK-MEL-28 > 100 µM | SK-OV-3 > 100 µM | SN12C > 100 µM | SR > 100 µM
